For the assay, the system named is SIRT2. Kind of assay: Effects of Tempol on gene expression in cardiac tissue of mice, chip-based microarray. Particulars: 5 mg/g of food from 14 to 31 months after birth. It is filed as in vivo. Here is the method: To assess the effects of Tempol on gene expression, Tempol was administered to experimental mice at a dose of 5 mg/g of food from 14 months to 31 months after birth. Mice receiving the same food without the addition of Tempol were used as a negative control. At the age of 31 months, the experimental animals were sacrificed and the hearts were surgically removed. The expression of a broad spectrum of genes in the cardiac tissue was assessed using chip-based microarray technology. Such chips are well known in the art and are widely used to assess gene expression.

Molecules are shown by their SMILES.

Consider 1 compound from patent US12208089B2, “Adjusting expression level of a gene encoding a Sirtuin protein by treating a human subject with a nitroxide” (priority 2021, dated 2025).

Regarding `CC1(C)CC(O)CC(C)(C)N1[O]` [Tempol, 4-hydroxy-2,2,6,6-tetramethylpiperidine-1-oxyl], the “Fold change (SIRT2 expression in cardiac tissue after Tempol administration)” value (hearts at 31 months, vs. same food without Tempol, P-value 0.00) is on record as 1.16. For the same compound, where the note is “microarray, vs. negative control”, the “SIRT2 expression in the cardiac tissue” value is listed as “statistically significant increase in expression”.
